Data reported in patent publication US20220412975A1, “CHARACTERIZING MODULATORS OF ADAMTS-7 AND ADAMTS-12” (The Broad Institute, Inc., priority 2019, published 2022).

How the values were obtained:
ADAMTS-4 = target: T1, ADAMTS-4 (Homo sapiens, UniProt O75173); experiment: Selectivity FRET assay ADAMTS4; assay type: biochemical; conditions: ADAMTS4 50 nM, Dabcyl-[…]-Glu(Edans)-NH2 1 μM, 120 min, 32° C.
T1 construct: purchased R&D 4307-AD
T1 sequence (O75173 213-837): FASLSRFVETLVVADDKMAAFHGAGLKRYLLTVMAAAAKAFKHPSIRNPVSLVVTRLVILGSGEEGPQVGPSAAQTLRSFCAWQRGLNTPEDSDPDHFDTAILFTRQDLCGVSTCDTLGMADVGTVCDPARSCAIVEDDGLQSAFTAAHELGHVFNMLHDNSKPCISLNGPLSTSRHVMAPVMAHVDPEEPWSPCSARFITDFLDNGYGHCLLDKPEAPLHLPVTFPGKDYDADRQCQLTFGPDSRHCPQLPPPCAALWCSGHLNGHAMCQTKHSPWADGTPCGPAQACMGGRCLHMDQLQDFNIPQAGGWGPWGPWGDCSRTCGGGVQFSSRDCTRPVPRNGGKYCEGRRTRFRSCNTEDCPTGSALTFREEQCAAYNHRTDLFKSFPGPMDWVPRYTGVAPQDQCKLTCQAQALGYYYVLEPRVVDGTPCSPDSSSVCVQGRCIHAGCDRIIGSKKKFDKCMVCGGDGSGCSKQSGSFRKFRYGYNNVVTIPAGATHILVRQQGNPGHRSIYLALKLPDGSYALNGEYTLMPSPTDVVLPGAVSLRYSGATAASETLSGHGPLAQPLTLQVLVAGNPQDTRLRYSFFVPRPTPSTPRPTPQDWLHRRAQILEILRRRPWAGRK
Description: The respective enzyme (see Table 4 below) was diluted in reaction buffer (50 mM Tris, 2.5 μM ZnCl2, 0.05% BSA, 0.001% Brij, pH 7.5 for ADAM17; 50 mM Tris 7.5, 150 mM NaCl, 10 mM CaCl2, 0.05% Brij for all other enzymes) to the respective concentration and 25 μl were transferred into each well of a 384-well white microtiter plate (Greiner Bio One 781075). 1 μl test compound solution (dissolved in DMSO, at the corresponding concentration) or pure DMSO as a control was added per well. The enzymatic reaction was initiated by addition of 25 μl of the respective concentration of the respective FRET substrate (see Table 4 below) in reaction buffer. The microtiter plate was incubated for 120 min at the temperature of 32° C. The increase of fluorescence intensity was measured in appropriate fluorescence plate reader (e.g. TECAN Ultra) using the respective wavelengths for excitation and emission. IC50 values were calculated from percentage of inhibition of enzyme activity as a function of test compound concentration.
Table 4. Assay conditions for the evaluation of the selectivity of ADAMTS-7 modulators. Abbreviations: Dabcyl: 4-((4-(dimethylamino)phenyl)azo)benzoic acid; Glu(Edans): L-glutamic acid-γ-[2-(1-sulfonyl-5-naphthyl)-aminoethylamide]; Mca: (7-Methoxycoumarin-4-yl)acetyl; Dap(Dnp): (2S)-3-(2,4-dinitroanilino)-2-(9H-fluoren-9-ylmethoxycarbonylamino)propanoic acid; Dpa: N-3-(2, 4-Dinitrophenyl)-L-2,3-diaminopropionyl.
(§1) The assays to determine the IC50 for ADAMTS inhibition were performed as described earlier herein.

ADAMTS-7 = target: T2, ADAMTS-7 (Homo sapiens, UniProt Q9UKP4, A119V/A123T/A127T/A171V/A193G/A200T/A28V/A36P/A42G/A66V/A78S/A97T/D77A/DEL186-188/DEL228-233/E133D/E190K/E213K/E83Q/G114S/G115N/G117S/G196D/G27H/H100Y/H124S/H234Q/K153R/L143F/L192S/L20I/P189H/P201S/P29L/P33S/P79S/Q99P/R118N/R122Q/R174Q/R195Q/R215Q/R218H/R35L/R75A/R76Q/R87Q/R92L/S170E/S199R/S202G/S214H/T110I/T125V/V182M/V208G/V74A/W225K/Y209S); experiment: ADAMTS-7 enzymatic activity FRET assay, testing of inhibitory compounds; assay type: biochemical
T2 construct: rat ADAMTS-7 signal peptide + prodomain (rat 1-217), fusion partner (N); 2xStrep tag (C); 6xHis tag (C); made in house; host or cells: Expi293 cells
T2 sequence (Q9UKP4 with tags, fused parts or gaps with the stated changes): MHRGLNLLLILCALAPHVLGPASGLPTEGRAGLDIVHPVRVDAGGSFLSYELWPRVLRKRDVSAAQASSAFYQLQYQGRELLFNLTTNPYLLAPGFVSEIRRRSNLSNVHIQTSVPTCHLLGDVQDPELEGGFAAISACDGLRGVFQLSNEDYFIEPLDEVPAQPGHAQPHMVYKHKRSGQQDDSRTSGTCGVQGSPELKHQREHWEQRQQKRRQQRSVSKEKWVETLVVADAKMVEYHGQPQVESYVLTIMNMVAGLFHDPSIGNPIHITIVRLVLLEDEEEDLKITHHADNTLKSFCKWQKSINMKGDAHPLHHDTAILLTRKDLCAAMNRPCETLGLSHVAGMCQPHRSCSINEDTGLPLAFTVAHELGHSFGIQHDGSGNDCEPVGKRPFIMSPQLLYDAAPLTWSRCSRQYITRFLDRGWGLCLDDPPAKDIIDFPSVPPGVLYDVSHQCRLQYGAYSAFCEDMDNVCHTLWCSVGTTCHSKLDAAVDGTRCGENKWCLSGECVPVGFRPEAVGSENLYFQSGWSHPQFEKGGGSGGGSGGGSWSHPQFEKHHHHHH
Description: Purified recombinant ADAMTS-7 (as of SEQ ID NO: 1 or SEQ ID NO: 2) was diluted in reaction buffer (20 mM HEPES pH 8.0, 150 mM NaCl, 5 mM CaCl2, 0.004% Brij, 10 μM ZnCl2) for a concentration of approximately 20 nM. 25 μl of the solution were transferred into each well of a 384-well white microtiter plate (Greiner Bio-One 781075) and 1 μl test compound solution (modulator/inhibitor dissolved in DMSO, at the corresponding concentration) or pure DMSO as a control were added per well. […] Amino acids […] are derived from Thrombospondin-1 sequence (275-289). An additional carboxyl glutamic acid was added after the QXL520 quencher to increase substrate solubility. The microtiter plate was incubated for 120 min at the temperature of 32° C. The increase of fluorescence intensity was measured in appropriate fluorescence plate reader (e.g. TECAN Ultra) using excitation wavelength of 485 nm and emission wavelength of 520 nm. IC50 values were calculated from percentage of inhibition of ADAMTS-7 activity as a function of test compound concentration. IC50 values derived using functional ADAMTS-7 according to SEQ ID NO: 1 or SEQ ID NO: 2, respectively, were not distinguishable, both laying within the experimental error.
as §1

| SMILES | IC50 (ADAMTS-4) [µM] | IC50 (ADAMTS-7) [µM] |
| --- | --- | --- |
| Cn1cc(-c2cc(C(=O)NC[C@@]3(C4CC4)NC(=O)NC3=O)on2)cn1 [Example 12.5, N-{[(4R)-4-cyclopropyl-2,5-dioxoimidazolidin-4-yl]methyl}-3-(1-methyl-1H-pyrazol-4-yl)-1,2-oxazole-5-carboxamide] | 4.69 | 0.052 |
| O=C1NC(=O)[C@](CNC(=O)c2cnn(-c3cnccn3)n2)(C2CC2)N1 [Example 12.2, N-{[(4R)-4-cyclopropyl-2,5-dioxoimidazolidin-4-yl]methyl}-2-(pyrazin-2-yl)-2H-1,2,3-triazole-4-carboxamide] | 24 | 0.355 |
| O=C1NC(=O)[C@](CNC(=O)c2cnn(-c3ccc(F)cn3)n2)(C2CC2)N1 [Example 12.1, N-{[(4R)-4-cyclopropyl-2,5-dioxoimidazolidin-4-yl]methyl}-2-(5-fluoropyridin-2-yl)-2H-1,2,3-triazole-4-carboxamide] | 4.75 | 0.14 |
